Source: article PMC7381729, “A new class of PentixaFor- and PentixaTher-based theranostic agents with enhanced CXCR4-targeting efficiency” (Theranostics, 2020)
Like-named read-outs stand apart in the source and are kept apart here. Where a SMILES comes first, the peptide text is derived from it. Side-chain parts run from the residue outwards. [ ]: non-standard residue; d: D form. The star is where a group is joined. DOTA = O=C(O)CN1CCN(CC(=O)O)CCN(CC(=O)*)CCN(CC(=O)O)CC1; 2Nal = N[C@@H](Cc1ccc2ccccc2c1)C(=O)O; dNMeOrn = CN[C@H](CCCN)C(=O)O; 4Abz = Nc1ccc(C(=O)O)cc1

Key:
[1] = Biodistribution in Daudi xenograft bearing mice; format: in vivo, mouse; details: female, CB-17 SCID, mouse, iv, total radioactivity, 1h p.i., means ± SD
Outline: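 Female CB-17 SCID mice with Daudi xenografts (n=4-5) received 5-10 MBq (0.08-0.11 nmol) ^68Ga- or ^177Lu-labelled ligand i.v.; blocking by coinjected 50 µg AMD3100. Organs counted by γ-counter at 1, 6 and 48 h p.i.; %ID/g (mean ± SD).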

[2] = Small animal PET imaging in Daudi xenograft bearing mice; format: in vivo; details: CB17 SCID, mouse, iv, total radioactivity, 90 min p.i., dynamic PET, ROI analysis, n=1 per compound
Description: Small aminal PET imaging studies were performed using a Siemens Inveon PET scanner. Animals were anesthetized with isoflurane and injected via the tail vein with 10 to 15 MBq (0.1 nmol) of the respective tracer. Dynamic imaging (n=1 per compound) was performed after on-bed injection for 1.5 h, and static images (n=1 per compound) were acquired at 1 h p.i. with an acquisition time of 15 min. Data analysis was performed using the Inveon Research Workplace software. Images were reconstructed using a 3D ordered-subsets expectation maximum (OSEM3D) algorithm without scanner and attenuation correction. Time-activity curves (Figure 4) were obtained by generating isocontour regions of interest (ROI) for the tumor and the heart content (as a surrogate for blood activity), as well as by defining two spherical ROIs (each 23.4 mm^3) in the thigh area (muscle) and areas of homogenous tracer uptake in the liver, followed by plotting of average activity ± SD per volume in these ROIs over time.  Figure 4 Results from small animal PET imaging using [^68Ga]PentixaFor (top row), [^68Ga]DOTA-r-a-ABA-CPCR4 (middle row) and [^68Ga]DOTA-r-a-ABA-iodoCPCR4 (bottom row) in Daudi xenograft bearing CB17 SCID mice. Images on the left (MIP) were obtained by static imaging (1h p.i., n=1), the time activity curves (TAC) on the right were acquired by dynamic PET imaging (0-90 min p.i., n=1).

- tissue uptake at 1 h ([1]; adrenals, tracer only, i.v., γ-counter, n=4-5 (68Ga: n=4), read-out: Biodistribution adrenals): 1.9 ± 1.14 %ID/g
- tissue uptake at 1 h ([1]; adrenals, with AMD3100, 50 µg per animal, coinjected (CXCR4 competition), coinjection of 50 µg AMD3100/animal, n=3, read-out: Biodistribution adrenals, competition with AMD3100): 1.02 ± 0.27 %ID/g
- tissue uptake at 1 h ([1]; blood, with AMD3100, 50 µg per animal, coinjected (CXCR4 competition), coinjection of 50 µg AMD3100/animal, n=3, read-out: Biodistribution blood, competition with AMD3100): 2.98 ± 0.57 %ID/g
- tissue uptake at 1 h ([1]; colon, tracer only, i.v., γ-counter, n=4-5 (68Ga: n=4), read-out: Biodistribution colon): 0.67 ± 0.13 %ID/g
- tissue uptake at 1 h ([1]; colon, with AMD3100, 50 µg per animal, coinjected (CXCR4 competition), coinjection of 50 µg AMD3100/animal, n=3, read-out: Biodistribution colon, competition with AMD3100): 0.47 ± 0.09 %ID/g
- tissue uptake at 1 h ([1]; femur, tracer only, i.v., γ-counter, n=4-5 (68Ga: n=4), read-out: Biodistribution femur): 1.27 ± 0.32 %ID/g
- tissue uptake at 1 h ([1]; femur, with AMD3100, 50 µg per animal, coinjected (CXCR4 competition), coinjection of 50 µg AMD3100/animal, n=3, read-out: Biodistribution femur, competition with AMD3100): 0.74 ± 0.11 %ID/g
- tissue uptake at 1 h ([1]; heart, tracer only, i.v., γ-counter, n=4-5 (68Ga: n=4), read-out: Biodistribution heart): 1.51 ± 0.25 %ID/g
- tissue uptake at 1 h ([1]; heart, with AMD3100, 50 µg per animal, coinjected (CXCR4 competition), coinjection of 50 µg AMD3100/animal, n=3, read-out: Biodistribution heart, competition with AMD3100): 1.37 ± 0.33 %ID/g
- tissue uptake at 1 h ([1]; kidney, tracer only, i.v., γ-counter, n=4-5 (68Ga: n=4), read-out: Biodistribution kidney): 11.5 ± 3.58 %ID/g
- tissue uptake at 1 h ([1]; kidney, with AMD3100, 50 µg per animal, coinjected (CXCR4 competition), coinjection of 50 µg AMD3100/animal, n=3, read-out: Biodistribution kidney, competition with AMD3100): 7.16 ± 1.62 %ID/g
- tissue uptake at 1 h ([1]; liver, with AMD3100, 50 µg per animal, coinjected (CXCR4 competition), coinjection of 50 µg AMD3100/animal, n=3, read-out: Biodistribution liver, competition with AMD3100): 4.62 ± 0.56 %ID/g
- tissue uptake at 1 h ([1]; lung, tracer only, i.v., γ-counter, n=4-5 (68Ga: n=4), read-out: Biodistribution lung): 3.15 ± 0.5 %ID/g
- tissue uptake at 1 h ([1]; lung, with AMD3100, 50 µg per animal, coinjected (CXCR4 competition), coinjection of 50 µg AMD3100/animal, n=3, read-out: Biodistribution lung, competition with AMD3100): 3.12 ± 0.57 %ID/g
- tissue uptake at 1 h ([1]; muscle, tracer only, i.v., γ-counter, n=4-5 (68Ga: n=4), read-out: Biodistribution muscle): 0.45 ± 0.05 %ID/g
- tissue uptake at 1 h ([1]; muscle, with AMD3100, 50 µg per animal, coinjected (CXCR4 competition), coinjection of 50 µg AMD3100/animal, n=3, read-out: Biodistribution muscle, competition with AMD3100): 0.4 ± 0.11 %ID/g
- tissue uptake at 1 h ([1]; pancreas, tracer only, i.v., γ-counter, n=4-5 (68Ga: n=4), read-out: Biodistribution pancreas): 0.68 ± 0.01 %ID/g
- tissue uptake at 1 h ([1]; pancreas, with AMD3100, 50 µg per animal, coinjected (CXCR4 competition), coinjection of 50 µg AMD3100/animal, n=3, read-out: Biodistribution pancreas, competition with AMD3100): 0.69 ± 0.07 %ID/g
- tissue uptake at 1 h ([1]; small intestine, tracer only, i.v., γ-counter, n=4-5 (68Ga: n=4), read-out: Biodistribution small intestine): 0.94 ± 0.13 %ID/g
- tissue uptake at 1 h ([1]; small intestine, with AMD3100, 50 µg per animal, coinjected (CXCR4 competition), coinjection of 50 µg AMD3100/animal, n=3, read-out: Biodistribution small intestine, competition with AMD3100): 0.94 ± 0.31 %ID/g
- tissue uptake at 1 h ([1]; spleen, tracer only, i.v., γ-counter, n=4-5 (68Ga: n=4), read-out: Biodistribution spleen): 2.01 ± 0.19 %ID/g
- tissue uptake at 1 h ([1]; spleen, with AMD3100, 50 µg per animal, coinjected (CXCR4 competition), coinjection of 50 µg AMD3100/animal, n=3, read-out: Biodistribution spleen, competition with AMD3100): 2.38 ± 0.23 %ID/g
- tissue uptake at 1 h ([1]; stomach, tracer only, i.v., γ-counter, n=4-5 (68Ga: n=4), read-out: Biodistribution stomach): 1.2 ± 0.1 %ID/g
- tissue uptake at 1 h ([1]; stomach, with AMD3100, 50 µg per animal, coinjected (CXCR4 competition), coinjection of 50 µg AMD3100/animal, n=3, read-out: Biodistribution stomach, competition with AMD3100): 0.97 ± 0.32 %ID/g
- tissue uptake at 1 h ([1]; tumor (Daudi xenograft), tracer only, i.v., γ-counter, n=4-5 (68Ga: n=4), read-out: Biodistribution tumor (Daudi xenograft)): 11.7 ± 1.31 %ID/g
- tissue uptake at 1 h ([1]; tumor (Daudi xenograft), with AMD3100, 50 µg per animal, coinjected (CXCR4 competition), coinjection of 50 µg AMD3100/animal, n=3, read-out: Biodistribution tumor, competition with AMD3100): 2.52 ± 0.36 %ID/g
- tissue uptake per volume at 1.5 h ([2]; kidney, read-out: Kidney uptake in PET): 9.4 ± 0.2 %ID/mL
- tissue uptake per volume at 1.5 h ([2]; liver, average ± SD per volume in ROI, read-out: Liver uptake in PET): 6 ± 0.2 %ID/mL
- tissue uptake per volume at 1.5 h ([2]; tumor (Daudi xenograft), Daudi xenograft, read-out: Tumor accumulation in PET): 12 ± 0.7 %ID/mL
Compound: C[C@@H](NC(=O)[C@@H](CCCNC(=N)N)NC(=O)CN1CCN(CC(=O)O)CCN(CC(=O)O)CCN(CC(=O)O)CC1)C(=O)Nc1ccc(C(=O)NCCC[C@@H]2C(=O)N[C@@H](CCCNC(=N)N)C(=O)N[C@@H](Cc3ccc4ccccc4c3)C(=O)NCC(=O)N[C@H](Cc3ccc(O)cc3)C(=O)N2C)cc1 [[^68Ga]DOTA-r-a-ABA-CPCR4, metal not drawn] (cyclo([2Nal]G[dY][dNMeOrn]([4Abz-dA-dR-DOTA])R))
